Assay results as given in patent US7034019B2, “Prodrugs of HIV replication inhibiting pyrimidines” (Janssen Pharmaceutica N.V., priority 2000, dated 2006).

Assays:
[1] = tested on: HIV; experiment: anti-HIV activity in MT-4 cells (MTT, HIV-induced cytopathic effect), prior to incubation; type: cell-based; conditions: Human immunodeficiency virus 1, MT4; prior to incubation in subcellular liver fractions; HIV-infected MT-4 cells; read-out: IC50 before
Procedure: (§1) The metabolism of the present compounds was studied in subcellular liver fractions (1200×g) of rat, dog or human. The compounds were incubated at a final […] concentration of 30 μM; incubations were performed up to 120 minutes at a final protein concentration equivalent to 1 mg/ml microsomal proteins. Reactions were stopped by the addition of an equal volume (2 ml) of […]. Samples were stored at ≦−18° C. until analysis. […] Table 2 lists IC50 values prior to and after incubation in subcellular liver fractions.
(§2) A rapid, sensitive and automated assay procedure was used for the in vitro evaluation of anti-HIV agents. […] The viability of both HIV- and mock-infected cells was assessed spectrophotometrically via the in situ reduction of 3-(4,5-dimethylthiazol-2-yl)-2,5-diphenyltetrazolium bromide (MTT). […] The percent protection achieved by the compound in HIV-infected cells was calculated by the following formula:
(§3) [formula] whereby (ODT)HIV is the optical density measured with a given concentration of the test compound in HIV-infected cells; (ODC)HIV is the optical density measured for the control untreated HIV-infected cells; (ODC)MOCK is the optical density measured for the control untreated mock-infected cells; all optical density values were determined at 540 nm. […]

[2] = tested on: HIV; experiment: anti-HIV activity (MT-4/MTT) of incubates after incubation in dog subcellular liver fractions; type: cell-based; conditions: Human immunodeficiency virus 1, MT4, 2 h; after incubation in dog subcellular liver fraction, 120 minutes; MT-4 cells
Procedure: as §1, §2, §3

[3] = tested on: HIV; experiment: anti-HIV activity (MT-4/MTT) of incubates after incubation in human subcellular liver fractions; type: cell-based; conditions: after incubation in human subcellular liver fraction, MT-4 cells
Procedure: as §1, §2, §3

[4] = tested on: HIV; experiment: anti-HIV activity (MT-4/MTT) of incubates after incubation in rat subcellular liver fractions; type: cell-based; conditions: Human immunodeficiency virus 1, MT4, 2 h; after incubation in rat subcellular liver fraction, 120 minutes; MT-4 cells
Procedure: as §1, §2, §3

IC50 [1] [µM] | melting point [°C] | IC50 [2] [µM] | IC50 ([3]; Human immunodeficiency virus 1, MT4, 0.5 h, 30 minutes) [µM] | IC50 ([3]; Human immunodeficiency virus 1, MT4, 2 h, 120 minutes) [µM] | IC50 [4] [µM] | SMILES
> 1 | 181 to 182 | 0.138 | 0.293 | 0.165 | 0.175 | CCOCN(c1ccc(C#N)cc1)c1ncc(Br)c(Oc2c(C)cc(C#N)cc2C)n1 [Compound 1]
> 1 | 199 to 200 | 0.809 | – | – | – | Cc1cc(C#N)cc(C)c1Oc1nc(N(COCCO)c2ccc(C#N)cc2)ncc1Br [Compound 3]
